Measured values published in US11149033B2, “Heteroaryl compound, enantiomer, diastereomer or pharmaceutically acceptable salt thereof, and antiviral composition containing same as active ingredient” (priority 2016, dated 2021).

Key:
[1] = tested on: A/California/07/2009 (H1N1); assay: Antiviral activity (drug efficacy evaluation by concentration) against A/California/07/2009 (H1N1); type: cell-based, A type influenza virus; conditions: Influenza A virus, H1N1; read-out: EC50
A/Perth/16/2009 (H3N2) = assay: Antiviral activity (drug efficacy evaluation by concentration) against A/Perth/16/2009 (H3N2); type: cell-based, A type influenza virus; conditions: Influenza A virus, H3N2; read-out: EC50
B/Florida/04/2006 = assay: Antiviral activity (drug efficacy evaluation by concentration) against B/Florida/04/2006; type: cell-based, B type influenza virus
[2] = CC50, third EC50/CC50 column pair (c7), beside the EC50 of c6

| Structure (SMILES) | EC50 [1] [µM] | EC50 (A/Perth/16/2009 (H3N2)) [µM] | CC50 (in vitro; CC50, beside the EC50 of c2) [µM] | CC50 (in vitro; CC50, beside the EC50 of c4) [µM] | CC50 (in vitro; [2]) [µM] | EC50 (B/Florida/04/2006) [µM] |
| --- | --- | --- | --- | --- | --- | --- |
| Brc1ccc(Nc2nnc(/C=C/c3ccccc3Br)o2)cc1 [Compound 83, (E)-N-(4-bromophenyl)-5-(2-bromostyryl)-1,3,4-oxadiazol-2-amine] | 4.25 | 4.75 | > 50 | > 50 | > 50 | 4.63 |
| CC(C)c1ccccc1CCc1nnc(Cc2ccc(Br)cc2)o1 [Compound 92, 2-(4-bromobenzyl)-5-(2-isopropylphenethyl)-1,3,4-oxadiazole] | 7.17 | 6.42 | > 50 | > 50 | > 50 | 6.59 |
| CC(C)c1ccccc1CCc1nnc(Cc2ccc(OC(F)(F)F)cc2)o1 [Compound 93, 2-(2-isopropylphenethyl)-5-(4-(trifluoromethoxy)benzyl)-1,3,4-oxadiazole] | 22.1 | 31.5 | > 50 | > 50 | > 50 | 45.1 |
| Cc1cc(C)cc(Cc2nnc(CCc3ccccc3C(C)C)o2)c1 [Compound 94, 2-(3,5-dimethylbenzyl)-5-(2-isopropylphenethyl)-1,3,4-oxadiazole] | 37.8 | 43.4 | > 50 | > 50 | > 50 | > 50 |
| Clc1cccc(Cc2nnc(SCc3ccccc3-c3ccccc3)o2)c1 [Compound 95, 2-(([1,1′-biphenyl]-2-ylmethyl)thio)-5-(3-chlorobenzyl)-1,3,4-oxadiazole] | 12.5 | 41.4 | > 50 | > 50 | > 50 | 37.6 |
| Cc1nn(Cc2nnc(S(=O)(=O)Cc3ccccc3-c3ccccc3)o2)c(C)c1Br [Compound 96, 2-(([1,1′-biphenyl]-2-ylmethyl)sulfonyl)-5-((4-bromo-3,5-dimethyl-1H-pyrazol-1-yl)methyl)-1,3,4-oxadiazole] | 1.3 | 1.3 | > 50 | > 50 | > 50 | 1.03 |
| COC(c1ccccc1)c1nnc(SCc2ccccc2-c2ccccc2)o1 (stereo not drawn) [Compound 97, 2-(([1,1′-biphenyl]-2-ylmethyl)thio)-5-(methoxy(phenyl)methyl)-1,3,4-oxadiazole] | 4.4 | 5.9 | 6.08 | 6.2 | 6 | 2.53 |
| Brc1ccc(Cc2nnc(Cc3cccc4ccccc34)o2)cc1 [Compound 100, 2-(4-bromobenzyl)-5-(naphthalen-1-ylmethyl)-1,3,4-oxadiazole] | > 50 | 49 | > 50 | > 50 | > 50 | > 50 |
| CC(C)c1ccccc1CCc1nnc(Cc2cccc(Br)c2)o1 [Compound 101, 2-(3-bromobenzyl)-5-(2-isopropylphenethyl)-1,3,4-oxadiazole] | 45.3 | 45.5 | > 50 | > 50 | > 50 | 36.5 |
| CC(C)c1ccccc1CCc1nnc(Cc2cccc(Cl)c2)o1 [Compound 102, 2-(3-chlorobenzyl)-5-(2-isopropylphenethyl)-1,3,4-oxadiazole] | 1.7 | 1.5 | 47.7 | > 50 | > 50 | 2.14 |
| Cc1ccccc1CCc1nnc(Cc2ccc(Br)cc2)o1 [Compound 103, 2-(4-bromobenzyl)-5-(2-methylphenethyl)-1,3,4-oxadiazole] | 3.1 | 3 | > 50 | > 50 | > 50 | 3.15 |
| Brc1cccc(Cc2nnc(SCc3ccccc3-c3ccccc3)o2)c1 [Compound 104, 2-(([1,1′-biphenyl]-2-ylmethyl)thio)-5-(3-bromobenzyl)-1,3,4-oxadiazole] | > 50 | > 50 | > 50 | > 50 | > 50 | 42.8 |
| FC(F)(F)Oc1ccc(Cc2nnc(SCc3ccccc3-c3ccccc3)o2)cc1 [Compound 106, 2-(([1,1′-biphenyl]-2-ylmethyl)thio)-5-(4-(trifluoromethoxy)benzyl)-1,3,4-oxadiazole] | 11.5 | 11.8 | > 50 | > 50 | > 50 | 12.1 |
| Brc1ccc(Cc2nnc(CC3CCCc4ccccc43)o2)cc1 (stereo not drawn) [Compound 109, 2-(4-bromobenzyl)-5-((1,2,3,4-tetrahydronaphthalen-1-yl)methyl)-1,3,4-oxadiazole] | 45.9 | 32.4 | > 50 | > 50 | > 50 | 34.7 |
| Cc1ccccc1C(C)Cc1nnc(Cc2ccc(Br)cc2)o1 (stereo not drawn) [Compound 110, 2-(4-bromobenzyl)-5-(2-(o-tolyl)propyl)-1,3,4-oxadiazole] | 32.2 | 41.5 | 46.7 | > 50 | > 50 | 46.7 |
| Cc1cc(C)cc(Cc2nnc(/C=C/c3ccccc3C(C)C)o2)c1 [Compound 113, 2-(3,5-dimethylbenzyl)-5-(2-isopropylstyryl)-1,3,4-oxadiazole] | 1.37 | 1.39 | 10 | 25.5 | 40.2 | 1.55 |
| CC(C)c1ccccc1OCc1nnc(Cc2ccccc2)o1 [Compound 114, 2-benzyl-5-((2-isopropylphenoxy)methyl)-1,3,4-oxadiazole] | 17.7 | 17.7 | 21.8 | > 50 | > 50 | 12 |
| CC(C)c1ccccc1OCc1nnc(Cc2ccc(Br)cc2)o1 [Compound 115, 2-(4-bromobenzyl)-5-((2-isopropylphenoxy)methyl)-1,3,4-oxadiazole] | 44.9 | 38.2 | > 50 | > 50 | > 50 | 45.1 |
| Brc1ccc(Nc2nnc(CCc3ccccc3-c3ccccc3)o2)cc1 [Compound 118, 5-(2-([1,1′-biphenyl]-2-yl)ethyl)-N-(4-bromophenyl)-1,3,4-oxadiazol-2-amine] | 43.9 | > 50 | > 50 | > 50 | > 50 | > 50 |
| Brc1ccc(Cc2nnc(CCc3ccccc3-c3ccccc3)o2)cc1 [Compound 119, 2-(2-([1,1′-biphenyl]-2-yl)ethyl)-5-(4-bromobenzyl)-1,3,4-oxadiazole] | > 50 | > 50 | > 50 | > 50 | > 50 | > 50 |
| CC(C)c1ccc(Cc2nnc(/C=C/c3ccccc3C(C)C)o2)cc1 [Compound 133, 2-(4-isopropylbenzyl)-5-(2-isopropylstyryl)-1,3,4-oxadiazole] | 2.66 | 1.4 | > 50 | > 50 | > 50 | 1.97 |
| Cc1cccc(C)c1CCc1nnc(Cc2ccc(Br)cc2)o1 [Compound 135, 2-(4-bromobenzyl)-5-(2,6-dimethylphenethyl)-1,3,4-oxadiazole] | 6.4 | 4.38 | > 50 | > 50 | > 50 | 5.63 |
